Assay: xn = mol fraction of the nth substance listed
Conditions: 101.3 kPa

CC[N+](CC)(CC)CC.[Cl-] + CNCCO
Conditions | speed of sound, x1 = 0.0914 [m/s] | speed of sound, x1 = 0.1114 [m/s] | speed of sound, x1 = 0.1413 [m/s] | viscosity, x1 = 0.0914 [mPa·s] | viscosity, x1 = 0.1114 [mPa·s] | viscosity, x1 = 0.1413 [mPa·s]
293.15 K | 1553.4 | 1565.5 | – | 20.5 | 21.9 | –
298.15 K | 1538 | 1550.1 | 1565.6 | 16.7 | 17.4 | 18.8
303.15 K | 1522.5 | – | 1550.1 | 13.5 | – | 15.2
308.15 K | – | 1519.5 | 1534.7 | – | 11.5 | 12.4
313.15 K | 1491.9 | 1504.6 | – | 9.57 | 10 | –
318.15 K | 1476.9 | 1489.4 | – | 7.92 | 8.35 | –
323.15 K | 1461.5 | – | – | 6.5 | – | –
328.15 K | – | 1458.8 | 1473.8 | – | 5.78 | 6.23
333.15 K | 1431 | 1444.6 | 1458.7 | 4.57 | 4.95 | 5.41

CCCC[N+](CCCC)(CCCC)CCCC.[Cl-] + CNCCO
Conditions | speed of sound, x1 = 0.091 [m/s] | speed of sound, x1 = 0.111 [m/s] | speed of sound, x1 = 0.1441 [m/s] | viscosity, x1 = 0.091 [mPa·s] | viscosity, x1 = 0.111 [mPa·s] | viscosity, x1 = 0.1441 [mPa·s]
293.15 K | – | 1516.6 | 1521.4 | – | 34.4 | 47.4
298.15 K | – | – | 1505.8 | – | – | 34.3
303.15 K | 1482 | 1485.3 | – | 18.5 | 20.8 | –
308.15 K | 1466.3 | 1469.8 | – | 15.1 | 16.8 | –
313.15 K | 1450.5 | 1454.2 | – | 12.7 | 14.1 | –
318.15 K | – | 1438.9 | 1443.8 | – | 11.6 | 14.1
323.15 K | 1419.5 | 1423.6 | 1428.6 | 8.93 | 9.5 | 11.8
328.15 K | 1404.1 | – | 1413.5 | 7.38 | – | 10.3
333.15 K | 1388.5 | 1393.1 | 1398.5 | 6.48 | 6.5 | 9.58
